{"source": "patent US11369609B2", "about": "“Small molecule Wnt inhibitor as treatment for dyslipidemia” (Yale University, priority 2019, dated 2022)", "key": {"canonical Wnt signaling [1]": {"system": "canonical Wnt signaling", "assay": "Renal fibrosis in unilateral ureteral obstruction (UUO) mice treated with Wnt inhibitor", "format": "in vivo", "method": "UUO surgery procedure was performed as previously described (44). Briefly, mice were anesthetized with isoflurane (3%-5% for induction and 1%-3% for maintenance). Mice were shaved on the left side of the abdomen, a vertical incision was made through the skin with a scalpel, and the skin was retracted. A second incision was made through the peritoneum to expose the kidney. The left ureter was ligated twice 15 mm below the renal pelvis with surgical silk, and the ureter was then severed between the 2 ligatures. Then, the ligated kidney was placed gently back into its correct anatomical position, and sterile saline was added to replenish loss of fluid. The incisions were sutured and mice were individually caged. Buprenorphine was used as an analgesic. The first dose was administered 30 minutes before surgery and then every 12 h for 72 h, at a dose of 0.05 mg/kg subcutaneously. Mice were sacrificed and kidney and blood samples were harvested after perfusion with PBS at 10 days after UUO. Contralateral kidneys were used as a nonfibrotic control for all experiments using this model.\nA point-counting method was utilized to evaluate the relative area of the mesangial matrix. PAS-stained glomeruli from each mouse were analyzed using a digital microscope screen grid containing 540 (27×20) points. Masson's trichrome-stained images were evaluated by ImageJ software, and the fibrotic areas were estimated.\nDeparaffinized sections were incubated with picrosirius red solution for 1 hour at room temperature. The slides were washed twice with acetic acid solution for 30 seconds per wash. The slides were then dehydrated in absolute alcohol three times, cleared in xylene, and mounted with a synthetic resin. Sirius red staining was analyzed using ImageJ software, and fibrotic areas were quantified.\nParaffin-embedded kidney sections (5 μm thick) were deparaffinized and rehydrated (2 min in xylene, four times; 1 min in 100% ethanol, twice; 1 min in 95% ethanol; 45 s in 70% ethanol; and 1 min in distilled water), and the antigen was retrieved in a 10 mM citrate buffer pH 6 at 98° C. for 60 min. To block the endogenous peroxidase, all sections were incubated in 0.3% hydrogen peroxide for 10 min. The immunohistochemistry was performed using a Vectastain ABC Kit (Vector Laboratories, Burlingame, Calif.). Mouse anti-[…] antibody (1:100) and CPT1a (Abnova; H00001374-DO1P; 1:100) antibody was used. In the negative controls, the primary antibody was omitted and replaced with the blocking solution.\nFrozen kidney sections (5 μm) were used for immunofluorescence; double positive labeling with CD31/αSMA, CD31/TGFβR1 and E-cadherin/αSMA was measured. Briefly, frozen sections were dried and placed in acetone for 10 min at −30° C. Once the sections were dried, they were washed twice in phosphate-buffered saline (PBS) for 5 min and then blocked in 2% bovine serum albumin/PBS for 30 min at room temperature. Thereafter, the sections were incubated in primary antibody (1:100) for 1 hour and washed in PBS (5 min) three times. Next, the sections were incubated with the secondary antibodies for 30 min, washed with PBS three times (5 min each), and mounted with mounting medium with DAPI (Vector Laboratories, Burlingame, Calif.). The immune-labeled sections were analyzed by fluorescence microscopy. For each mouse, original magnification of ×400 pictures were obtained from six different areas, and quantification was performed.\n(§1) To determine whether inhibition of the Wnt signaling pathway could ameliorate the observed fibrosis, LGK974, a small molecule inhibitor of all secreted Wnts (43), was utilized. FIGS. 21A-21B depict the schematic diagram showing the experimental protocol for LGK974 treatment in diabetic CD-1 and UUO mice."}, "canonical Wnt signaling [2]": {"system": "canonical Wnt signaling", "assay": "Plasma cytokine array analysis (Luminex) in wnti-treated diabetic mice", "format": "in vivo", "method": "FIG. 22. […] Cytokines and chemokines were measured in plasma by using the cytokine array analysis (Luminex). The plasma of wnti-treated diabetic mice was analyzed for cytokine array analysis. N=5/group. Data are shown as mean±SEM. Tukey test was used for the analysis of statistical significance. *p<0.05.\nas §1"}, "kidney endothelial cells [3]": {"system": "kidney endothelial cells", "assay": "Fatty acid uptake in isolated kidney endothelial cells", "format": "in vivo", "settings": "diabetic mice, radiolabeled [14C]palmitate uptake", "method": "(§2) Endothelial cells from the kidneys of non-diabetic and diabetic mice were isolated using a standardized kit (Miltenyl Biotech, USA) by following the manufacturer's instructions. Briefly, kidneys were isolated and minced into small pieces. Using a series of enzymatic reactions by treating the tissue with trypsin and Collagenase type I solution, a single cell suspension was created. The pellet was dissolved with CD31 magnetic beads and the CD31-labelled cells were separated on a magnetic separator. The cells were further purified on a column. Cell number was counted by hemocytometer and cells were plated on 0.1% gelatin coated Petri dishes.\nCultured isolated kidney endothelial cells were incubated with medium containing 2 μCi [^14C]palmitate. [^14C]-palmitate uptake was measured by liquid scintillation counting.\nIt is increasingly recognized that defects in central metabolism contribute to kidney fibrosis (69, 76). Defective FA metabolism in EC leads to EndMT events (77). To investigate whether FA metabolism was deranged in the model, radiolabeled [^14C]palmitate uptake experiments were performed in isolated EC from mouse kidneys. […] FA oxidation (FAO) was also assessed by measuring the ^14CO2 release from radiolabeled [^14C]palmitate in cultured EC isolated from kidneys. […]"}, "kidney endothelial cells [4]": {"system": "kidney endothelial cells", "assay": "Fatty acid oxidation (14CO2 release from [14C]palmitate) in isolated kidney endothelial cells", "format": "in vivo, mice", "settings": "diabetic CD-1 mice, Wnt inhibitor", "method": "as §2\nCultured isolated kidney endothelial cells were incubated with medium containing 0.75 mmol/L palmitate (conjugated to 2% free fatty acid-free BSA/[^14C] palmitate at 2 μCi/mL) for 2 h. One mL of the culture medium was transferred to a sealable tube, the cap of which housed a Whatman filter paper disc. ^14CO2 trapped in the media was then released by acidification of media using 60% perchloric acid. Radioactivity that had become adsorbed onto the filter discs was then quantified by liquid scintillation counting.\nIt is increasingly recognized that defects in central metabolism contribute to kidney fibrosis (69, 76). Defective FA metabolism in EC leads to EndMT events (77). To investigate whether FA metabolism was deranged in the model, radiolabeled [^14C]palmitate uptake experiments were performed in isolated EC from mouse kidneys. FA uptake was higher in isolated EC from the diabetic kidneys of the more fibrotic strain (diabetic CD-1) when compared to kidney EC from the less-fibrotic strain (diabetic C57BL/6). […] FA oxidation (FAO) was also assessed by measuring the ^14CO2 release from radiolabeled [^14C]palmitate in cultured EC isolated from kidneys. […] In the next set of experiments, diabetic CD-1 mice were treated with the FA synthase inhibitor C75, the FAO inhibitor etomoxir, the PPARα agonist fenofibrate, and the cholesterol-lowering drug simvastatin for 4 weeks. […] (FIG. 23A). Fenofibrate and C75 restored the level of GR protein in CD31 positive cells, whereas etomoxir and simvastatin suppressed it (FIG. 23B)."}}}
{"smiles": "Cc1cc(-c2ncc(CC(=O)Nc3ccc(-c4cnccn4)cn3)cc2C)ccn1", "note": "[LGK974]", "values": [{"measurement": "ECM deposition", "setting": "canonical Wnt signaling [1]; LGK974 5 mg/kg", "value": "greatly diminished"}, {"measurement": "collagen accumulation", "setting": "canonical Wnt signaling [1]; LGK974 5 mg/kg", "value": "greatly diminished"}, {"measurement": "glomerulosclerosis", "setting": "canonical Wnt signaling [1]; LGK974 5 mg/kg", "value": "greatly diminished"}, {"measurement": "relative area fibrosis", "setting": "canonical Wnt signaling [1]; LGK974 5 mg/kg", "value": "greatly diminished"}, {"measurement": "endothelial GR level", "setting": "canonical Wnt signaling [1]; kidney CD31-positive cells", "value": "significantly restored"}, {"measurement": "level of β-catenin", "setting": "canonical Wnt signaling [1]; kidney immunohistochemistry", "value": "suppressed"}, {"measurement": "cytokine- and chemokine reprogramming in plasma", "setting": "canonical Wnt signaling [2]", "value": "disrupts the cytokine- and chemokine reprogramming"}, {"measurement": "plasma CCL4 level", "setting": "canonical Wnt signaling [2]", "value": "significantly suppressed"}, {"measurement": "plasma CCL5 level", "setting": "canonical Wnt signaling [2]", "value": "elevating"}, {"measurement": "plasma G-CSF level", "setting": "canonical Wnt signaling [2]", "value": "significantly suppressed"}, {"measurement": "plasma IL-1β level", "setting": "canonical Wnt signaling [2]", "value": "significantly suppressed"}, {"measurement": "plasma IL-6 level", "setting": "canonical Wnt signaling [2]", "value": "significantly suppressed"}, {"measurement": "plasma IL-10 level", "setting": "canonical Wnt signaling [2]", "value": "significantly suppressed"}, {"measurement": "plasma MCP-1 level", "setting": "canonical Wnt signaling [2]", "value": "significantly suppressed"}, {"measurement": "plasma TNFα level", "setting": "canonical Wnt signaling [2]", "value": "significantly suppressed"}, {"measurement": "FA uptake in isolated kidney EC", "setting": "kidney endothelial cells [3]", "value": "suppressed FA uptake"}, {"measurement": "level of FAO in isolated kidney EC", "setting": "kidney endothelial cells [4]", "value": "able to restore the level of FAO"}]}
